According to patent US20120264753A1, “NOVEL 1-(BIPHENYL-4-YL-METHYL)-1H-IMIDAZOLE DERIVATIVE AND PHARMACEUTICAL PRODUCT CONTAINING SAME” (KOWA COMPANY, LTD., priority 2009, published 2012):

Columns and labels:
[1] = target: T1, human PPARγ2 (Homo sapiens, UniProt P37231); assay: PPARγ activation activity, Gal4-PPARγ2 LBD luciferase transfection assay in COS7 cells; format: cell-based; details: Gal4-human PPARγ2 LBD chimera, luciferase reporter, 16 hours
T1 construct: the amino acids 182 to 505 of human PPARγ2; expressed in transfected cells; host or cells: COS7 cells (African green monkey kidney)
T1 sequence (P37231 182-505): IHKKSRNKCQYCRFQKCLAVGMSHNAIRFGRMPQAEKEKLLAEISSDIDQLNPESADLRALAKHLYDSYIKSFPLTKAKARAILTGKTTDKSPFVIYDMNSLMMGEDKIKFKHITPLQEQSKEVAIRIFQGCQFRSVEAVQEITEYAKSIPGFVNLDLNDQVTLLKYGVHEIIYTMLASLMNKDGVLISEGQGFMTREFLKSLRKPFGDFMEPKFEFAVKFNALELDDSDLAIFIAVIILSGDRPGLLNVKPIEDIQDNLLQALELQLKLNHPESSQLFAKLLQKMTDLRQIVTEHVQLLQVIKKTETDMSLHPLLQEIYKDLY
Description: PPARγ Activation Activity
The agonistic activity of the compounds of the invention on PPARγ was measured based on the transfection assay using COS7 cells (DS Pharma Biomedical Co., Ltd., Osaka, Japan), which are the cell line derived from the kidney of the African green monkey. COS7 cells were cultured under 5% CO2 concentration, and DMEM medium containing 10% fetal bovine serum, glutamic acid, and antibiotics was used as a medium.
As an expression vector, a chimera in which DNA binding domain of Gal4, which is a yeast transcription factor, and ligand binding domain of human PPARγ2 are fused, i.e., a fused product between the amino acids 1 to 147 of Gal4 transcription factor and the amino acids 182 to 505 of human PPARγ2, was used. Furthermore, as a reporter vector, a firefly luciferase containing five copies of Gal4 recognition sequence in the promoter region was used. Plasmid transfection to the cells was performed according to a method which uses jetPEI (trade name, manufactured by Funakoshi Co., Ltd., Tokyo, Japan). Furthermore, β-galactosidase expression vector was employed as an internal standard.
After the transfection of the cells, the medium was replaced with a DMEM medium (containing […]) added with the test compound, and the cells were further cultured for 16 hours. After that, the luciferase activity and β-galactosidase activity in the cell lysis solution were measured.
For the present test, dimethyl sulfoxide (DMSO) was used for dissolution and dilution of the test compounds, and during the cell treatment, the DMSO concentration in DMEM medium (containing 1% serum) was adjusted to 0.1%. The 50% effective concentration of the test compound (EC50, 50% effect concentration) was calculated by using SAS Preclinical Package Ver 5.0 (trade name, manufactured by SAS institute Japan Co., Tokyo, Japan), which is a statistical analysis program.

[2] = target: T2, angiotensin II type 1 receptor (Oryctolagus cuniculus, UniProt P34976); assay: Angiotensin II antagonistic activity in isolated rabbit blood vessels; details: angiotensin II (10 nM)-induced contraction of rabbit thoracic aorta ring; read-out: Angiotensin II 50% inhibition concentration
T2 construct: By using a specimen of isolated rabbit blood vessels; from tissue; host or cells: rabbit (New Zealand White) thoracic aorta ring
T2 sequence (P34976 1-359): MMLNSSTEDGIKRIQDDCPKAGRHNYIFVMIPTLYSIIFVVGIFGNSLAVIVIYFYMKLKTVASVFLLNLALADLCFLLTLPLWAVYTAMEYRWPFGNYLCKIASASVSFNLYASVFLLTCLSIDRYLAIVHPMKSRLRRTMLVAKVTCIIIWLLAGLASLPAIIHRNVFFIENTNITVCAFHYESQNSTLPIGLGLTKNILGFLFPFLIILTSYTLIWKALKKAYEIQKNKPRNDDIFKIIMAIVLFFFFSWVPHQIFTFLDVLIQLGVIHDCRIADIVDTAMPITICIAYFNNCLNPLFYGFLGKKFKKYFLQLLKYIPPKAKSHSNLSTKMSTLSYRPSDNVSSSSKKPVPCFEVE
Text: Angiotensin II Antagonistic Activity in Isolated Rabbit Blood Vessels
By using a specimen of isolated rabbit blood vessels, antagonistic activity of the compounds of the invention against angiotensin II type 1 receptor was estimated from a dose-response curve of angiotensin II-induced blood vessel contraction. Specifically, the specimen of thoracic aorta ring of a rabbit (New Zealand White: male, 2.4 to 3.0 kg) was suspended in a magnus bath filled with Krebs-Henseleite buffer (composition: 118 mM NaCl, 4.7 mM KCl, 2.55 mM CaCl2, 1.18 mM MgSO4, 1.18 mM KH2PO4, 24.88 mM NaHCO3, and 11.1 mM D-glucose), and angiotensin II (10 nM)-induced contraction was obtained in the presence of the compounds of each Example (1 nmol/L to 10 μmol/L). During the measurement, the inside temperature of the magnus bath was maintained at 37° C. and the bath was continuously ventilated with a sufficient amount of mixed gas (95% O2 and 5% CO2). The angiotensin II-induced contraction was converted into a relative value (%) that is based on the angiotensin II (10 nM)-induced contraction in the absence of the compounds of each Example. From the concentration-response curve obtained therefrom, 50% inhibition concentration (IC50 value) was calculated by using SAS Preclinical Package Ver 5.0 (trade name, manufactured by SAS institute Japan Co., Tokyo, Japan), which is a statistical analysis program. As described in the Table 1, it was confirmed that the compounds of the invention have a potent angiotensin II antagonistic activity.

Row | SMILES | EC50 [1] | IC50 [2]
1 | CCCCc1nc(-c2ccc(F)cc2)c(CO)n1Cc1ccc(-c2ccccc2-c2noc(=O)[nH]2)cc1 [Example 1, 3-[4′-[{2-butyl-4-(4-fluorophenyl)-5-(hydroxymethyl)-1H-imidazol-1-yl}methyl]biphenyl-2-yl]-1,2,4-oxadiazol-5(4H)-one] | 1520 nM | 
2 | CCCCc1nc(-c2ccc(F)cc2)c(C(=O)OC)n1Cc1ccc(-c2ccccc2-c2noc(=O)[nH]2)cc1 [Example 2, methyl 2-butyl-4-(4-fluorophenyl)-1-[{2′-(5-oxo-4,5-dihydro-1,2,4-oxadiazol-3-yl)biphenyl-4-yl}methyl]-1H-imidazole-5-carboxylic acid] |  | 4070 nM
3 | CCCCc1nc(-c2ncc(OCC)cn2)c(CO)n1Cc1ccc(-c2ccccc2-c2noc(=O)[nH]2)cc1 [Example 4, 3-[4′-[{2-butyl-4-(5-ethoxypyrimidin-2-yl)-5-(hydroxymethyl)-1H-imidazol-1-yl}methyl]-biphenyl-2-yl]-1,2,4-oxadiazol-5(4H)-one] | 1480 nM | 1040 nM
4 | CCCCc1nc(-c2ncc(OCC)cn2)c(CO)n1Cc1ccc(-c2ccccc2-c2nnn[nH]2)cc1 [Example 5, [1-[{2′-(1H-tetrazol-5-yl)biphenyl-4-yl}methyl]-2-butyl-4-(5-ethoxypyrimidin-2-yl)-1H-imidazol-5-yl]methanol] |  | 770 nM
5 | CCCCc1nc(-c2ncc(OCC)cn2)c(C(=O)OC)n1Cc1ccc(-c2ccccc2-c2noc(=O)[nH]2)cc1 [Example 6, methyl 2-butyl-4-(5-ethoxypyrimidin-2-yl)-1-[{2′-(5-oxo-4,5-dihydro-1,2,4-oxadiazol-3-yl)biphenyl-4-yl}methyl]-1H-imidazole-5-carboxylic acid] | 560 nM | 6940 nM
6 | CCCCc1nc(-c2ncc(OCC)cn2)c(C(=O)OC)n1Cc1ccc(-c2ccccc2-c2nnn[nH]2)cc1 [Example 8, methyl 1-[{2′-(1H-tetrazol-5-yl)biphenyl-4-yl}methyl]-2-butyl-4-(5-ethoxypyrimidin-2-yl)-1H-imidazole-5-carboxylic acid] | 3010 nM | 1010 nM
7 | CCCCc1nc(-c2ccc(F)cc2)c(C(N)=O)n1Cc1ccc(-c2ccccc2-c2noc(=O)[nH]2)cc1 [Example 10, 2-butyl-4-(4-fluorophenyl)-1-({2′-(5-oxo-4,5-dihydro-1,2,4-oxadiazol-3-yl)biphenyl-4-yl}methyl)-1H-imidazole-5-carboxamide] | 3430 nM | 800 nM
8 | CCCCc1nc(-c2ccc(F)cc2)c(C(=O)NCC)n1Cc1ccc(-c2ccccc2-c2noc(=O)[nH]2)cc1 [Example 11, 2-butyl-N-ethyl-4-(4-fluorophenyl)-1-[{2′-(5-oxo-4,5-dihydro-1,2,4-oxadiazol-3-yl)biphenyl-4-yl}methyl]-1H-imidazole-5-carboxamide] | 2280 nM | 5690 nM
9 | CCCCc1nc(-c2ccc(F)cc2)c(C(=O)N(CC)CC)n1Cc1ccc(-c2ccccc2-c2noc(=O)[nH]2)cc1 [Example 12] | 2370 nM | 
10 | CCCCc1nc(-c2ccc(F)cc2)c(C(N)=O)n1Cc1ccc(-c2ccccc2-c2nnn[nH]2)cc1 [Example 15, 1-[{2′-(1H-tetrazol-5-yl)biphenyl-4-yl}methyl]-2-butyl-4-(4-fluorophenyl)-1H-imidazole-5-carboxamide] |  | 460 nM
11 | CCCCc1nc(-c2ccc(F)cc2)c(C(=O)NCC)n1Cc1ccc(-c2ccccc2-c2nnn[nH]2)cc1 [Example 16, 1-[{2′-(1H-tetrazol-5-yl)biphenyl-4-yl}methyl]-2-butyl-N-ethyl-4-(4-fluorophenyl)-1H-imidazole-5-carboxamide] |  | 990 nM
12 | CCCCc1nc(-c2ccc(F)cc2)c(C(=O)N(CC)CC)n1Cc1ccc(-c2ccccc2-c2nnn[nH]2)cc1 [Example 17, 1-[{2′-(1H-tetrazol-5-yl)biphenyl-4-yl}methyl]-2-butyl-N,N-diethyl-4-(4-fluorophenyl)-1H-imidazole-5-carboxamide] | 3300 nM | 
13 | CCCCc1nc(-c2ccc(F)cc2)c(C(=O)N2CCOCC2)n1Cc1ccc(-c2ccccc2-c2nnn[nH]2)cc1 [Example 18, [1-[{2′-(1H-tetrazol-5-yl)biphenyl-4-yl}methyl]-2-butyl-4-(4-fluorophenyl)-1H-imidazol-5-yl](morpholino)methanone] | 4320 nM | 1600 nM
14 | CCCCc1nc(-c2ccc(F)cc2)c(C(=O)N2CCCC2)n1Cc1ccc(-c2ccccc2-c2nnn[nH]2)cc1 [Example 19, [1-[{2′-(1H-tetrazol-5-yl)biphenyl-4-yl}methyl]-2-butyl-4-(4-fluorophenyl)-1H-imidazol-5-yl](pyrrolidin-1-yl)methanone] |  | 6980 nM
15 | CCCc1nc2c(C)cc(-c3nc4ccccc4n3C)cc2n1Cc1ccc(-c2ccccc2C(=O)O)cc1 [telmisartan, reference compound] | 1000 to 5000 nM | 
